Here are results for 18 compounds from ChEMBL document CHEMBL5214884, “Recent research progress of Uncaria spp. based on alkaloids: phytochemistry, pharmacology and structural chemistry” (Eur J Med Chem, 2021).

Assay [1] is described as follows: Inhibition of alpha glucosidase (unknown origin) using p-nitrophenyl-a-D-glucopyranoside as substrate incubated for 20 mins by UV based microplate reading method. Set-up: species or system Homo sapiens.
The subject of another assay is Rattus norvegicus. In words: Hypotensive effect against Phe-induced contraction in rat mesentric arteries assessed as relaxation effect […]. It is filed as functional.
Assay [2] has as its target T1, Acetylcholinesterase (Homo sapiens, UniProt P22303). In words: Inhibition of AChE (unknown origin) using acetylcholine as substrate by BioTek Synergy HT microplate reader method.
A short description of assay [3]: Inhibition of LPS-induced NO release in mouse N9 microglial cells measured after 48 hrs by Griess reaction assay. The note with it: N9, 48 h. The class given is functional, cell-based.
The nature of assay [4]: Inhibition of alpha glucosidase (unknown origin) using p-nitrophenyl alpha-D-glucoside as substrate preincubated for 60 mins followed by substrate addition measured after 30 mins by spectrophotometric analysis. Set-up: species or system Homo sapiens.
Assay [5] in a line: Inhibition of human carboxylesterase using 4-benzoyl-N-butyl-1,8-naphthalimide as substrate by fluorescence based assay.
Assay [6] has as its target T2, Melatonin receptor type 1A (Homo sapiens, UniProt P48039). In words: Agonist activity at human MT1R stably expressed in HEK293 cells by FlexStation3 Bench-top MultiMode Microplate Reader. The class given is functional, cell-based.
The target of assay [7] is T3, Melatonin receptor type 1B (Homo sapiens, UniProt P49286).
T3 sequence (P49286 whole entry): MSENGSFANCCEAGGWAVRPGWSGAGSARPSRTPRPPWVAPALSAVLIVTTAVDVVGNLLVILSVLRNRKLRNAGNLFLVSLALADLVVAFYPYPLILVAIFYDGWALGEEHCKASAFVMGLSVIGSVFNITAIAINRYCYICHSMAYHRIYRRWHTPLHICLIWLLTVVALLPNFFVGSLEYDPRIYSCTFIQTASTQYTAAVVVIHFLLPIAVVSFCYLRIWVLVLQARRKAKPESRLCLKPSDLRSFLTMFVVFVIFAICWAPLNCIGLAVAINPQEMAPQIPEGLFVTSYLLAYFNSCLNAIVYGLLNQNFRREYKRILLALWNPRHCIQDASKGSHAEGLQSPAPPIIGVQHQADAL
In words: Agonist activity at human MT2R stably expressed in HEK293 cells by FlexStation3 Bench-top MultiMode Microplate Reader. The class given is functional, cell-based.

The species named for assay [8] is Mus musculus. In words: Antiinflammatory activity against Balb/c mouse serum assessed as inhibition of IL-1beta release measured after 2 hrs by cytokine Elisa multiplex Q-plex system method relative to control. It is filed as functional. Set-up: scale not given: the % may be the effect or the level left.
The species named for assay [9] is Mus musculus. In words: Antiinflammatory activity against Balb/c mouse serum assessed as inhibition of IL-1alpha release measured after 2 hrs by cytokine Elisa multiplex Q-plex system method relative to control. The class given is functional. Set-up: scale not given: the % may be the effect or the level left.
The species entered for assay [10] is Mus musculus. In words: Antiinflammatory activity against Balb/c mouse serum assessed as inhibition of TNF-alpha release measured after 2 hrs by cytokine Elisa multiplex Q-plex system method relative to control. The class given is functional. Set-up: scale not given: the % may be the effect or the level left.
The species entered for assay [11] is Mus musculus. In words: Antiinflammatory activity against Balb/c mouse serum assessed as inhibition of IL-17 release measured after 2 hrs by cytokine Elisa multiplex Q-plex system method relative to control. The class given is functional. Set-up: scale not given: the % may be the effect or the level left.
For assay [12], the species on record is Mus musculus. In words: Antiinflammatory activity against Balb/c mouse serum assessed as reduction of IL-4 release measured after 2 hrs by cytokine Elisa multiplex Q-plex system method relative to control. It is filed as functional. Set-up: scale not given: the % may be the effect or the level left.
For a further assay, the system named is RAW264.7. In words: Inhibition of LPS-induced NO release in mouse RAW264.7 cells preincubated for 2 hrs followed by LPS addition measured after 24 hrs. It is filed as functional, cell-based.
The target in assay [13] is T2, Melatonin receptor type 1A. In words: Agonist activity at human MT1R stably expressed in HEK293 cells at 1 mM by FlexStation3 Bench-top MultiMode Microplate Reader relative to control. It is filed as functional, cell-based. The note with it: filed as agonist.
The target in assay [14] is T4, Melatonin receptor type 1B (Homo sapiens) (UniProt P49286).
T4 sequence (whole entry): T3 sequence (P49286 whole entry)
In words: Agonist activity at human MT2R stably expressed in HEK293 cells at 1 mM by FlexStation3 Bench-top MultiMode Microplate Reader relative to control. It is filed as functional, cell-based. The note with it: filed as agonist.

The test system of assay [15] is PC-12. In words: Neuroprotective activity against mNGF-differentiated rat PC-12 cells assessed as inhibition of caspase 3. It is filed as functional, cell-based.
Assay [16] has as its system PC-12. In words: Neuroprotective activity against mNGF-differentiated rat PC-12 cells assessed as inhibition of caspase 9. It is filed as functional, cell-based.
Assay [17] has as its target T1, Acetylcholinesterase. In words: Inhibition of AChE (unknown origin) incubated for 20 mins by Ellman's method.

pEC50, pIC50: −log10 of the molar value.

T2 sequence (P48039 whole entry): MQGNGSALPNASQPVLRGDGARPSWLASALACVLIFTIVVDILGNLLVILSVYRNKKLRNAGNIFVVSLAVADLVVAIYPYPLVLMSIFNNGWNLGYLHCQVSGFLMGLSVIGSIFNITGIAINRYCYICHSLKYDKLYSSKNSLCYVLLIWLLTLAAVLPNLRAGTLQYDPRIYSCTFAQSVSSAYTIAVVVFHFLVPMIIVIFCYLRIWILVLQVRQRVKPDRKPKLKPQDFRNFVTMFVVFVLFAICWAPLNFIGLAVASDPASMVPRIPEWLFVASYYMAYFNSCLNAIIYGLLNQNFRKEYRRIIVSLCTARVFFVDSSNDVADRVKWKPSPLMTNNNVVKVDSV
T1 sequence (P22303 whole entry): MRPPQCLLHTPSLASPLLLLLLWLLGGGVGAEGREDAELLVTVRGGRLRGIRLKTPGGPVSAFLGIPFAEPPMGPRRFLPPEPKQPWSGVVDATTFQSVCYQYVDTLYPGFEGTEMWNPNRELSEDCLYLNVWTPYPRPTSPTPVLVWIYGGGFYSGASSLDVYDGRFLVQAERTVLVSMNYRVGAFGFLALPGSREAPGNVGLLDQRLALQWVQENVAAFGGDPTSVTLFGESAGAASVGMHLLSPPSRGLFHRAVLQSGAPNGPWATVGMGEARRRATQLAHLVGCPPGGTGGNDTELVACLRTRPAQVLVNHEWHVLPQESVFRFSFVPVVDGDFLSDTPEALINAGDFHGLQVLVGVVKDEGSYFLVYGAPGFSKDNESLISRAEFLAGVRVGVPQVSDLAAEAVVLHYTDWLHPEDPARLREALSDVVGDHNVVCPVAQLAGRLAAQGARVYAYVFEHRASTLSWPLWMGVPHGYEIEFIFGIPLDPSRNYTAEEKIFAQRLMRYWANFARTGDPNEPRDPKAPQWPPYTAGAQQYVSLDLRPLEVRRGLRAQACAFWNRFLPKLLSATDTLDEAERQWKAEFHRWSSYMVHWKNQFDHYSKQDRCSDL

Take `Oc1cc(O)c2c(c1)O[C@H](c1ccc(O)c(O)c1)[C@@H](O)[C@@H]2c1c(O)cc(O)c2c1O[C@H](c1ccc(O)c(O)c1)[C@@H](O)C2`: the negative-log IC50 (pIC50) in [1] was 4.76. As for `CC[C@H]1CN2CCc3c([nH]c4ccccc34)[C@H]2C[C@H]1/C(=C\OC)C(=O)OC`, in the assay with Rattus norvegicus, the negative logarithm of the IC50 (pIC50) is 6.74. With `C/C=C1\CN2CCc3c([nH]c4ccccc34)[C@@H]2C[C@@H]1/C(=C\OC)C(=O)OC`, the negative-log IC50 (pIC50) on Acetylcholinesterase [2] was 4.19. `Cc1cc2c(cc1O)OC1(CC1)C(O)C2` (stereo unspecified) had a pIC50 in assay [1] of 4.81. In turn, `C=C[C@@H]1C(C[C@@H]2NCCc3c2[nH]c2ccccc32)C(C(=O)OC)=CO[C@H]1O[C@@H]1O[C@H](CO)[C@@H](O)[C@H](O)[C@H]1O` (stereo partly specified) had a pIC50 in assay [3] of 5.08.

Compound `COCC1=C(C)[C@H]2C3=CC[C@@H]4[C@@]5(C)CC[C@H](O)C(C)(C)[C@@H]5C(=O)C[C@@]4(C)[C@]3(C)CC[C@@]2(C(=O)O)CC1` had a pIC50 in assay [4] of 4.31.

Take `CO[C@H]1C=C2[C@@H]3C[C@H](C)CC[C@]3(C(=O)O)CC[C@@]2(C)[C@]2(C)CC[C@H]3C(C)(C)[C@@H](O)CC[C@]3(C)[C@@H]12`: in assay [5], the negative-log IC50 (pIC50) was 5.40.

Turning to `Oc1cc(O)c2c(c1)O[C@H](c1ccc(O)c(O)c1)[C@@H](O)C2` [CIANIDANOL], the pEC50 in assay [6] was 4.59; in assay [7], 4.33.

For `COC(=O)C1=CO[C@@H](C)[C@H]2CN3CC[C@]4(C(=O)Nc5ccccc54)[C@@H]3CC12` (stereo partly specified), the Activity in the assay listed under Mus musculus [8] is 50%; in the assay listed under Mus musculus [9], 50%; in the assay filed under Mus musculus [10], 50%; in the assay filed under Mus musculus [11], 50%; in the assay filed under Mus musculus [12] it was 40%. As to `C[C@H]1[C@H](C)CC[C@]2(C(=O)O)CC[C@]3(C(=O)/C=C/c4ccc(O)cc4)C(=CC[C@@H]4[C@@]5(C)CC[C@H](O)C(C)(C)[C@@H]5CC[C@]43C)[C@H]12`, the pIC50 with RAW264.7 is 5.15. The same measure, in the same setting: in the case of `C=C1CC[C@]2(C(=O)O)CC[C@]3(C)C(=CC[C@@H]4[C@@]5(C)CC[C@H](O)C(C)(C)[C@@H]5[C@H](O)C[C@]43C)[C@@H]2[C@]1(C)O` it was 5.83.

For `C=C[C@H]1[C@H](O[C@@H]2O[C@H](CO)[C@@H](O)[C@H](O)[C@@H]2O[C@@H]2O[C@H](CO[C@@H]3O[C@H](CO)[C@@H](O)[C@H](O)[C@H]3O)[C@@H](O)[C@H](O)[C@H]2O)OC=C2C(=O)N3CCc4c([nH]c5cc(O)ccc45)[C@H]3C[C@H]21`, the Activity is 79.6% in assay [13] and 46.3% in [14]. Take `CC1(C)CC[C@]2(C(=O)O)CC[C@]3(C)C(=CC[C@@H]4[C@@]5(C)CC[C@H](O)C(C)(C)[C@@H]5CC[C@]43C)[C@@H]2C1` [OLEANOLIC_ACID]: the pIC50 in assay [5] was 5.40. The same measure, in the same setting: in the case of `C[C@H]1[C@H](C)CC[C@]2(C(=O)O)CC[C@]3(C)C(=CC[C@@H]4[C@@]5(C)CC[C@H](O)C(C)(C)[C@@H]5[C@H](O)C[C@]43C)[C@H]12` it was 5.40. For the compound `C[C@H]1[C@H](C)CC[C@]2(C(=O)O)CC[C@]3(C)C(=CC[C@@H]4[C@@]5(C)CC[C@H](O)C(C)(C)[C@@H]5CC[C@]43C)[C@H]12` [URSOLIC ACID], the pIC50 in assay [4] is 4.80; in assay [5] it was 5.40. In the case of `C=C[C@H]1[C@H](O[C@@H]2O[C@H](CO)[C@@H](O)[C@H](O)[C@H]2O)OC=C(C(=O)OC)[C@H]1C[C@@H]1N[C@H](C(=O)O)Cc2c1[nH]c1ccccc21`, the values for the negative logarithm of the IC50 (pIC50) in the assay with PC-12 [15] and in the assay with PC-12 [16] were 4.59 and 4.61, respectively. For `C=C[C@H]1COC(=O)C2=CN3CCc4c([nH]c5cccc(O[C@@H]6O[C@H](CO)[C@@H](O)[C@H](O)[C@H]6O)c45)[C@@H]3C[C@H]21`, the negative logarithm of the IC50 (pIC50) against Acetylcholinesterase [17] is 4.68. For `O=C1CC[C@H](Cc2ccc(O)c(O)c2)O1`, the pIC50 in assay [1] is 4.57.
